Measured values taken from patent US12447160B2, “Topical treatment of wounds with statins and cholesterol for scar reduction” (Northwestern University, priority 2017, dated 2025).

Assays:
hypertrophic scar = assay: Rabbit ear hypertrophic scar model, scar elevation index (SEI) by histomorphometry; type: in vivo, New Zealand White rabbits
[1] = Solubility of statins in the topical vehicle / microemulsion system; type: physicochemical
Description: Transdermal penetration is the critical limitation in topical application. […] The stratum corneum is hydrophobic and a barrier for any topically applied reagent, and so hydrophobic statins should have increased penetration^18. […] Dosing schedules were chosen based upon in vitro dosing necessary to interfere with CTGF expression^11-13,22,23, and extrapolated to animal models based upon our experience with dose response curves for growth factors in our rabbit ear model^24.

CTGF mRNA = assay: Quantification of CTGF mRNA expression in dermal scar tissue (qPCR); type: in vivo, New Zealand White rabbits; settings: high-dose (10%) simvastatin topical, mean±SEM, p<0.01
Experimental: (§1) Total RNA was extracted from dermal scar tissue of high-dose simvastatin topical treatment and control scars using TRI reagent (Sigma-Aldrich, St. Louis, MO), and contaminated DNA was removed with Turbo DNA-free kit (Ambion, Austin, TX). The cDNA was synthesized from one μg of total RNA by superscript II reverse transcriptase (Invitrogen, Grand Island, NY) with 100 ng of random primers in 20 μl of volume. Synthesized cDNA was quantified in a sequence detection system (ABI StepOnePlus; Applied Biosystems, Foster City, CA) using SYBR green and specific primers of CTGF and collagen 1A1, and 18 S rRNA was set as endogenous control. The sequence of primers is as followed: CTGF (5′-CTTCTGTCGGCTGGAGAAAC-3′ (SEQ ID NO:1) & 5′-TTAGCCCGGTACGTCTTCAC-3′ (SEQ ID NO:2)); Collagen 1A1: (5′-TAAGAGCTCCAAGGCCAAGA-3′(SEQ ID NO:3) & 5′-TGTTCTGAGAGGCGTGATTG-3′ (SEQ ID NO:4)); Glyceraldehyde 3-phosphate dehydrogenase (5′-AGGTCATCCACGACCACTTC-3′ (SEQ ID NO:5) & 5′-GTGAGTTTCCCGTTCAGCTC-3′ (SEQ ID NO:6)).
(§2) For statistical analysis of histological and molecular analysis results, Student's paired t test was applied to see if there is a difference between treatment and control group, p<0.05 was used as significant. All values were represented as mean±standard error.

Collagen 1A1 mRNA = assay: Quantification of Collagen 1A1 mRNA expression in dermal scar tissue (qPCR); type: in vivo, New Zealand White rabbits; settings: high-dose (10%) simvastatin topical, mean±SEM, p<0.01
Experimental: as §1, §2

SMILES: CC(C)CCC[C@@H](C)[C@H]1CC[C@H]2[C@@H]3CC=C4C[C@@H](O)CC[C@]4(C)[C@H]3CC[C@]12C [cholesterol]
- Effect of cholesterol on reducing scarring (hypertrophic scar; topical cholesterol in vehicle): mild, not statistically effect

SMILES: CC[C@H](C)C(=O)O[C@H]1C[C@@H](C)C=C2C=C[C@H](C)[C@H](CC[C@@H]3C[C@@H](O)CC(=O)O3)[C@H]21 [lovastatin]
- Solubility in the vehicle tested [1]: limited solubility

SMILES: CC[C@H](C)C(=O)O[C@H]1C[C@H](O)C=C2C=C[C@H](C)[C@H](CC[C@@H](O)C[C@@H](O)CC(=O)O)[C@H]21 [pravastatin]
- Scar elevation index (SEI) (hypertrophic scar; intradermal 100 μl 10 μM pravastatin in PBS per wound at POD 15, 18, 21, harvest POD 28, mean±standard error, saline control 1.71±0.08, p=0.0009): 1.55±0.07

SMILES: CCC(C)(C)C(=O)O[C@H]1C[C@@H](C)C=C2C=C[C@H](C)[C@H](CC[C@@H]3C[C@@H](O)CC(=O)O3)[C@H]21 [simvastatin]
- mRNA expression of CTGF compared to vehicle control (CTGF mRNA): 53.8±8.0%
- mRNA expression of Collagen 1A1 compared to vehicle control (Collagen 1A1 mRNA): 48.5±14%
